Our source for the EC50 values is US9802927B2, “Oxadiazine compounds and methods of use thereof” (Denali Therapeutics, Inc., priority 2015, dated 2017).

As a reminder, the EC50 is the concentration that produces a half-maximal response.

The test system of the assay is Aβ42. In words: In vitro cell screening assay in H4 cells expressing human APP751: Aβ42 by sandwich ELISA. Conditions: compounds 0.003-10 μM, incubated overnight (16-18 h), sandwich ELISA of supernatant. The class given is cell-based. The method, then: Human neuroglioma H4 cells were transfected with a pcDNA3.1 plasmid expressing human wild type APP751 cDNA and a stable cell line was generated using G418 selection. Cells were plated at 15,000 cells/well in Costar 96-well plates and placed at 37° C. and 5% CO2. Six hours after plating, cells were washed three times with Pro293™ chemically defined medium, followed by addition of compounds (0.003-10 μM, final DMSO concentration of 0.33%). Plates were incubated overnight (16-18 h) and supernatant was removed for quantification of Aβ peptides by sandwich ELISA. Cytotoxicity was evaluated using Cell-Titer 96W AQueous One Solution Cell Proliferation Assay according to the manufacturer's protocol.
Aβ peptide levels were quantified by sandwich ELISA. 96-well plates were coated with C-terminal specific Aβ antibodies recognizing either Aβ37, Aβ38, Aβ40, Aβ42, Aβ43 or a N-terminal specific Aβ antibody to detect Aβ 1-x. Plates were then blocked overnight at 4° C. with 1% bovine serum albumin (BSA) in PBS-T. Plates were washed and 100 μl of cultured cell supernatant or synthetic Aβ peptide standards and a detection antibody (4G8-HRP) were applied to the blocked plate and incubated overnight at 4° C. The next day, wells were washed before the addition of detection substrate (TMB peroxidase). Plates were then read for absorbance at 450 nm on a Molecular Devices SpectraMax M5e Microplate Reader.
Compound-treated samples were normalized to samples treated with DMSO alone (no inhibition) and to samples treated with DAPT. EC50 values were calculated from values reported as percent of DMSO controls using nonlinear regression, based on a sigmoidal dose response (variable slope) model. GraphPAD software from Prism used for calculation.
Background: In an ELISA, binding on a coated surface is turned into a signal by an enzyme label.

As for `COc1nc(C2=NOCC(c3ccccn3)N2)ccc1-n1cnc(C)c1` (single isomer, unassigned; (+)) [Example 168A, (+)-3-(6-methoxy-5-(4-methyl-1H-imidazol-1-yl)pyridin-2-yl)-5-(pyridin-2-yl)-5,6-dihydro-4H-1,2,4-oxadiazine], the EC50 (Homo sapiens) is greater than 3 µM.
As for `COc1nc(C2=NOCC(c3ccccc3)N2)ccc1-n1cnc(C)c1` (single isomer, unassigned) [Example 36A, 3-(6-methoxy-5-(4-methyl-1H-imidazol-1-yl)pyridin-2-yl)-5-phenyl-5,6-dihydro-4H-1,2,4-oxadiazine], a half-maximal response (EC50) required 2.74 µM.
Same read-out and setting: the result for `COc1nc(C2=NOCC(c3cn(C)c4ncccc34)N2)ccc1-n1cnc(C)c1` (single isomer, unassigned; (+)) [Example 195B, (+)-3-(6-methoxy-5-(4-methyl-1H-imidazol-1-yl)pyridin-2-yl)-5-(1-methyl-1H-pyrrolo [2,3-b]pyridin-3-yl)-5,6-dihydro-4H-1,2,4-oxadiazine] reads 0.163 µM.
On the same count and under the same terms, next, `COc1nc(C2=NOCC(c3cn(C)c4ncc(C5CC5)cc34)N2)ccc1-n1cnc(C)c1` (single isomer, unassigned; (-)) [Example 266A, (−)-5-(5-cyclopropyl-1-methyl-1H-pyrrolo[2,3-b]pyridin-3-yl)-3-(6-methoxy-5-(4-methyl-1H-imidazol-1-yl)pyridin-2-yl)-5,6-dihydro-4H-1,2,4-oxadiazine]: 0.45 µM.
In the case of `COc1nc(C2=NOCC(c3ccc(C(F)(F)F)cc3)N2)ccc1-n1cnc(C)c1` (single isomer, unassigned; (+)) [Example 59B, (+)-3-(6-methoxy-5-(4-methyl-1H-imidazol-1-yl)pyridin-2-yl)-5-(4-(trifluoromethyl)phenyl)-5,6-dihydro-4H-1,2,4-oxadiazine], the EC50 was 0.0337 µM.
The same measure, in the same setting: next, `COc1nc(C2=NOCC(c3cn(C)c4ccccc34)N2C)ccc1-n1cnc(C)c1` (single isomer, unassigned; (+)) [Example 200A, (+)-3-(6-methoxy-5-(4-methyl-1H-imidazol-1-yl)pyridin-2-yl)-4-methyl-5-(1-methyl-1H-indol-3-yl)-5,6-dihydro-4H-1,2,4-oxadiazine]: 0.154 µM; `COc1nc(C2=NOCC(c3ccc(S(C)(=O)=O)cc3)N2)ccc1-n1cnc(C)c1` (single isomer, unassigned; (+)) [Example 217B, (+)-3-(6-methoxy-5-(4-methyl-1H-imidazol-1-yl)pyridin-2-yl)-5-(4-(methylsulfonyl)phenyl)-5,6-dihydro-4H-1,2,4-oxadiazine]: 2.05 µM.
For the compound `CCn1cc(C2CON=C(c3ccc(-n4cnc(C)c4)c(OC)n3)N2)c2cc(Cl)c(F)cc21` (single isomer, unassigned; (-)) [Example 73A, (−)-5-(5-chloro-1-ethyl-6-fluoro-1H-indol-3-yl)-3-(6-methoxy-5-(4-methyl-1H-imidazol-1-yl)pyridin-2-yl)-5,6-dihydro-4H-1,2,4-oxadiazine], a half-maximal response (EC50) required 0.0549 µM. Against the preceding compound, the EC50 is about 37-fold lower.
Same read-out and setting: next, `COc1nc(C2=NOCC(CC3CC3)N2)ccc1-n1cnc(C)c1` (single isomer, unassigned) [Example 159B, 5-(cyclopropylmethyl)-3-(6-methoxy-5-(4-methyl-1H-imidazol-1-yl)pyridin-2-yl)-5,6-dihydro-4H-1,2,4-oxadiazine]: 0.695 µM; `COc1nc(C2=NOCC(c3ccc(C)cc3)N2)ccc1-n1cnc(C)c1` (single isomer, unassigned; (+)) [Example 227B, (+)-3-(6-methoxy-5-(4-methyl-1H-imidazol-1-yl)pyridin-2-yl)-5-(p-tolyl)-5,6-dihydro-4H-1,2,4-oxadiazine]: 0.0738 µM.
Still for that read-out and setting: next, `COc1nc(C2=NOCC(c3ccc(F)c(F)c3)N2)ccc1-n1cnc(C)c1` (single isomer, unassigned; (+)) [Example 75B, (+)-5-(3,4-difluorophenyl)-3-(6-methoxy-5-(4-methyl-1H-imidazol-1-yl)pyridin-2-yl)-5,6-dihydro-4H-1,2,4-oxadiazine]: 0.0922 µM; `COc1nc(C2=NOCC(c3cc4ccc(F)cc4o3)N2)ccc1-n1cnc(C)c1` (single isomer, unassigned; (-)) [Example 52A, (−)-5-(6-fluorobenzofuran-2-yl)-3-(6-methoxy-5-(4-methyl-1H-imidazol-1-yl)pyridin-2-yl)-5,6-dihydro-4H-1,2,4-oxadiazine]: 0.667 µM; `COc1nc(C2=NOCC(c3cccc(C(F)(F)F)c3)N2)ccc1-n1cnc(C)c1` (single isomer, unassigned; (+)) [Example 113B, (+)-3-(6-methoxy-5-(4-methyl-1H-imidazol-1-yl)pyridin-2-yl)-5-(3-(trifluoromethyl)phenyl)-5,6-dihydro-4H-1,2,4-oxadiazine]: 0.043 µM.
Turning to `COc1nc(C2=NOCC(c3noc4ccccc34)N2)ccc1-n1cnc(C)c1` (single isomer, unassigned) [Example 174B, 3-(3-(6-methoxy-5-(4-methyl-1H-imidazol-1-yl)pyridin-2-yl)-5,6-dihydro-4H-1,2,4-oxadiazin-5-yl) benzo[d]isoxazole], the EC50 was determined as 0.281 µM.
Still for that read-out and setting: the result for `COc1nc(C2=NOCC(c3cn(C)c4cc(F)c(F)cc34)N2)ccc1-n1cnc(C)c1` (single isomer, unassigned; (-)) [Example 223A, (−)-5-(5,6-difluoro-1-methyl-1H-indol-3-yl)-3-(6-methoxy-5-(4-methyl-1H-imidazol-1-yl)pyridin-2-yl)-5,6-dihydro-4H-1,2,4-oxadiazine] reads 0.13 µM; that for `COc1nc(C2=NOCC(c3ccc4ncsc4c3)N2)ccc1-n1cnc(C)c1` (single isomer, unassigned; (-)) [Example 183A, (−)-5-(benzo [d]thiazol-6-yl)-3-(6-methoxy-5-(4-methyl-1H-imidazol-1-yl)pyridin-2-yl)-5,6-dihydro-4H-1,2,4-oxadiazine], 1.76 µM.
Still for that read-out and setting: the result for `COc1nc(C2=NOCC(C3CC3)N2)ccc1-n1cnc(C)c1` (single isomer, unassigned) [Example 134B, 5-cyclopropyl-3-(6-methoxy-5-(4-methyl-1H-imidazol-1-yl)pyridin-2-yl)-5,6-dihydro-4H-1,2,4-oxadiazine] reads 1.1 µM.
For `COc1nc(C2=NOCC(c3cn(C)c4cc(C(F)(F)F)ccc34)N2)ccc1-n1cnc(C)c1` (single isomer, unassigned; (-)) [Example 197B, (−)-3-(6-methoxy-5-(4-methyl-1H-imidazol-1-yl)pyridin-2-yl)-5-(1-methyl-6-(trifluoromethyl)-1H-indol-3-yl)-5,6-dihydro-4H-1,2,4-oxadiazine], the 50% effective concentration (EC50) amounted to 0.0905 µM.
Still for that read-out and setting: the result for `COc1nc(C2=NOCC(C3CCS(=O)(=O)CC3)N2)ccc1-n1cnc(C)c1` (single isomer, unassigned; (-)) [Example 177B, (−)-4-(3-(6-methoxy-5-(4-methyl-1H-imidazol-1-yl)pyridin-2-yl)-5,6-dihydro-4H-1,2,4-oxadiazin-5-yl) tetrahydro-2H-thiopyran 1,1-dioxide] reads greater than 3 µM; that for `COc1nc(C2=NOCC(c3cccc(C(F)(F)F)c3)N2C)ccc1-n1cnc(C)c1` (stereo not drawn) [Example 213, 3-(6-methoxy-5-(4-methyl-1H-imidazol-1-yl)pyridin-2-yl)-4-methyl-5-(3-(trifluoromethyl)phenyl)-5,6-dihydro-4H-1,2,4-oxadiazine], 0.0557 µM.
Take `COc1nc(C2=NOCC(c3cccc(OC(F)(F)F)c3)N2)ccc1-n1cnc(C)c1` (single isomer, unassigned; (+)) [Example 242B, (+)-3-(6-methoxy-5-(4-methyl-1H-imidazol-1-yl)pyridin-2-yl)-5-(3-(trifluoromethoxy)phenyl)-5,6-dihydro-4H-1,2,4-oxadiazine]: the response was half-maximal at 0.0185 µM (EC50).
Still for that read-out and setting: the result for `COc1nc(C2=NOCC(c3ccc(C(F)(F)F)cc3)N2)ccc1-n1cnc(C)c1` (single isomer, unassigned; (-)) [Example 59A, (−)-3-(6-methoxy-5-(4-methyl-1H-imidazol-1-yl)pyridin-2-yl)-5-(4-(trifluoromethyl)phenyl)-5,6-dihydro-4H-1,2,4-oxadiazine] reads greater than 3 µM; that for `COc1nc(C2=NOCC(c3nn(C)c4ccc(C(F)(F)F)cc34)N2)ccc1-n1cnc(C)c1` (single isomer, unassigned; (+)) [Example 241B, (+)-3-(6-methoxy-5-(4-methyl-1H-imidazol-1-yl)pyridin-2-yl)-5-(1-methyl-5-(trifluoromethyl)-1H-indazol-3-yl)-5,6-dihydro-4H-1,2,4-oxadiazine], 0.0051 µM; that for `COc1nc(C2=NOCC(c3ccc(C(C)(C)O)cc3)N2)ccc1-n1cnc(C)c1` (single isomer, unassigned; (-)) [Example 268A, (−)-2-(4-(3-(6-methoxy-5-(4-methyl-1H-imidazol-1-yl)pyridin-2-yl)-5,6-dihydro-4H-1,2,4-oxadiazin-5-yl)phenyl)propan-2-ol], 1.44 µM.
